Results taken from patent US20060159676A1, “Methods for modulating angiogenesis, lymphangiogenesis, and apoptosis with apelin compositions” (priority 2005, published 2006).

Key:
[1] = system: lymphatic vessels; experiment: In vivo lymphatic vessel branching assay, quail CAM; conditions: collagen disk with 50 ng apelin or 100 ng VEGF-C on CAM of 7 day quail embryos, 18 hours
Protocol: All experiments were carried out using chorioallantoic membranes (CAMs) of quail embryos. Quail embryos used for the lymphatic experiments were 7 days old. Collagen purified from rat tails (Bernanke and Markwald, 1982) was polymerized in 2 mm disks at a final concentration of approximately 1.6 mg/ml in standard phosphate buffered saline (PBS). The total volume of the collagen disk was approximately 10 μl. For experimental treatments, the collagen disks were supplemented with either 50 ng of apelin peptide or 100 ng of VEGF-C protein prior to polymerization at 37° C. for 30 minutes. The VEGF-C was a positive control for these experiments. (Recombinant Human VEGF-C (Cys156Ser), R&D Systems, cat # 752-vc). Apelin peptide was synthesized by Sigma-Genosys (>90% purity).
For lymphangiogenesis assays, the CAMs of 7 day quail embryos were exposed, in ovo, and the collagen disks were placed directly onto the surface of the CAM. […]
The samples were incubated with primary antibody (Prox1, Research Diagnostics, cat # RDI-102PA30, diluted to 2 μg/ml final concentration) for 4 hours at room temperature or overnight at 4° C. […] Both the lymphatic cell number as well as the number of lymphatic branches were determined.
Both blood vessels and lymphatic vessels were stained with the QH-1 antibody. […] The number of lymphatic vessels branching away from blood vessels (towards the collagen disk) were counted. […]

[2] = system: bEnd3 cells; conditions: apelin 10 ng/ml in bottom chamber; VEGF 50 ng/ml as comparison
Protocol: Cell migration assays were performed using the bEnd3 cells in Transwell cell culture migration chambers (FIG. 20). The cells were plated in serum free medium in the upper chamber of the migration chamber. […] The cells that migrated to the bottom chamber were visualized by DAPI stain of the nuclei of the cells (Panels A, B, and C).

[3] = system: BAE/APJ#2 cells; conditions: 10 ng/ml in bottom chamber, 16 hours
Protocol: Bovine aortic endothelial cells (BAE) were cultured in DMEM supplemented with 10% fetal bovine serum (FBS) and penicillin/streptomycin. For generation of stable cell lines expressing APJ, the mouse APJ coding region was cloned into the pcDNA 3.1 vector downstream of the CMV promoter, in frame with a myc epitope at the C-terminal end of the protein, and upstream of the neomycin gene. Bovine aortic endothelial (BAE) cells were transfected with this construction using the Superfect transfection kit (Qiagen) and selected for resistance to G418 (600 μg/ml). Colonies were isolated and screened using RT-PCR for expression of mouse APJ and also by immunocytochemistry for expression of the myc epitope.
Cell migration assays were performed using Transwell cell culture migration chambers (Becton Dickinson) with 8 micron pore size. BAE/APJ#2 cells were plated in serum free conditions in 100 μl at a concentration of 1×10^5 ml in the upper chamber of the migration chamber. Following cell attachment to the membrane, 10 ng/ml of growth factor was added to the bottom chamber, in a total volume of 0.5 ml. […] Cells attached to the membrane in the lower chamber were stained with DAPI, and 3 random fields were counted for each experimental condition.

[4] = system: BAE/APJ#2 cells (bovine aortic endothelial cells expressing mouse APJ); experiment: BAE/APJ#2 endothelial cell proliferation (BrdU incorporation); assay type: cell-based; conditions: 10 ng/ml, 24 hours, after 48 hours serum starvation
Protocol: SU1498 was included in proliferation cultures at a concentration of 10 ng/ml and results were assayed using BrdU incorporation. After growth factor incubation, BrdU was added to each well at a final concentration of 10 μM for 2 hours, cells were washed, and fixed for BrdU immunocytochemistry.
Cells were fixed in 100% ice cold methanol at 4° C. for 2 hours to overnight. Prior to staining, cells were air dried and rehydrated for 3 minutes with PBS buffer. DNA was denatured at 37° C. with 2 M HCl, and neutralized with 2 washes for 5 minutes in 0.1 M borate buffer (pH 8.5). […] FITC-labeled anti-BrdU antibody (5 μg/ml) in block was added for 1 hour at room temperature. Cells were counterstained with propidium iodide following several washes in PBS buffer. For each experiment, 4 random fields were photographed for determination of percentage BrdU labeling.

Apelin-13
number of lymphatic vessels branching away from blood vessels [1]: positive regulator of lymphatic branching angiogenesis
endothelial cell migration (chemotaxis) [2]: acts as chemotactic agent for the endothelial cells to the same extent as VEGF
endothelial cell migration (cells per field) [3]: promotes endothelial cell migration
endothelial cell proliferation (BrdU labeling) [4]: promotes endothelial cell proliferation to a similar extent as VEGF
